Results taken from patent publication US8252723B2, “Substituted 1-(3-pyridinyl)pyrazol-4-ylacetic acids, processes for their preparation and their use as herbicides and plant growth regulators” (Bayer CropScience AG, priority 2006, dated 2012).

system: summer wheat of the cultivar 'Triso'; assay: Plant growth regulation test: culm stabilization of crop plants; format: in vivo; details: application rate of 30 to 300 g of active substance per hectare, treated at stage BBCH 31, culm length measured after ears had formed
Protocol: With stirring, the compound of the formula (I) in question was, in the form of a water-dispersible powder, together with a surfactant (customary adjuvant at an application rate of 1 l/ha), mixed with water such that a homogenous spray liquor was formed, and applied at an application rate of 300 l of water/ha (converted).
Seeds of summer wheat of the cultivar ‘Triso’ were sown at a depth of 1 cm in plant pots and cultivated outdoors until treatment.
The plants were treated on a laboratory track sprayer with spray liquors of the test substances at macrostage 3 after having reached about 10% of the maximum longitudinal growth typical for the cultivar (stage BBCH 31) and, after the treatment, returned outdoors.
After the ears had formed, the length of the culms were measured. The culm stabilization was evaluated as a percentage of the untreated control.

Row | Structure (SMILES) | longitudinal growth (culm length) of summer wheat
1 | Cc1nn(-c2cccnc2)c(-c2cccc(C(F)(F)F)c2)c1CC(=O)O [Example 1-18] | effectively shortened
2 | Cc1nn(-c2cccnc2)c(-c2ccccc2)c1CC(=O)OCC1(C)CC1 [Example 3-105] | effectively shortened
3 | C#CCOC(=O)Cc1cnn(-c2cccnc2)c1-c1ccccc1 [Example 3-64] | effectively shortened
4 | COC(=O)Cc1c(C)nn(-c2cccnc2)c1-c1ccc(C(C)(C)C)cc1 [Example 2-122] | effectively shortened
5 | Cc1ccc(-c2c(CC(=O)O)c(C)nn2-c2cccnc2)s1 [Example 1-61] | effectively shortened
6 | Cc1cc(C)cc(-c2c(CC(=O)O)c(C)nn2-c2cccnc2)c1 [Example 1-43] | effectively shortened
7 | Cc1ncccc1-n1nc(C)c(CC(=O)O)c1-c1ccccc1 [Example 1-135] | effectively shortened
8 | C=C(Cl)COC(=O)Cc1c(C)nn(-c2cccnc2)c1-c1ccc(C)s1 [Example 3-191] | effectively shortened
9 | C=C(Cl)COC(=O)Cc1cnn(-c2cccnc2)c1-c1ccccc1 [Example 3-207] | effectively shortened
10 | Cc1nn(-c2cnccc2[S+](C)[O-])c(-c2ccccc2)c1CC(=O)O (centres unmarked) [Example 1-71] | effectively shortened
11 | COC(=O)Cc1c(C)nn(-c2cnccc2C)c1-c1ccc(C)c(C)c1 [Example 2-116] | effectively shortened
12 | COC(=O)Cc1c(C)nn(-c2cnccc2C)c1-c1cccs1 [Example 2-52] | effectively shortened
13 | Cc1nn(-c2cccnc2)c(-c2ccc(O)nc2)c1CC(=O)OCC1CC1 [Example 3-87] | effectively shortened
14 | Cc1nn(-c2cccnc2)c(-c2ccc(Cl)s2)c1CC(=O)O [Example 1-60] | effectively shortened
15 | COC(=O)Cc1c(C)nn(-c2cnccc2C)c1-c1cc(C)cs1 [Example 2-54] | effectively shortened
16 | O=C(Cc1cnn(-c2cccnc2)c1-c1ccccc1)OCC1CC1 [Example 3-100] | effectively shortened
17 | Cc1nn(-c2cccnc2)c(-c2ccccc2)c1CC(=O)OC(C)C1CC1 (centres unmarked) [Example 3-144] | effectively shortened
18 | COC(=O)C(C)c1c(C)nn(-c2cnccc2C)c1-c1ccccc1 (centres unmarked) [Example 2-6] | effectively shortened
19 | COC(=O)Cc1c(C)nn(-c2cccnc2)c1-c1ccccc1 [Example 2-2] | effectively shortened
20 | Cc1ccncc1-n1nc(C)c(CC(=O)O)c1-c1ccc(Cl)cc1 [Example 1-25] | effectively shortened
21 | COC(=O)Cc1c(C)nn(-c2cnccc2C)c1-c1ccc(C)c(Cl)c1 [Example 2-49] | effectively shortened
22 | COc1ccc(-c2c(CC(=O)OCC3CC3)c(C)nn2-c2cccnc2)cn1 [Example 3-86] | effectively shortened

Row | Structure (SMILES) | longitudinal growth (culm length) of summer wheat
23 | COC(=O)Cc1c(C(=O)OC)nn(-c2cccnc2)c1-c1ccccc1 [Example 2-127] | effectively shortened
24 | C#CCOC(=O)Cc1c(C)nn(-c2cnccc2C)c1-c1ccc(Cl)cc1 [Example 3-75] | effectively shortened
25 | COc1ccc(-n2nc(C)c(CC(=O)O)c2-c2ccccc2)cn1 [Example 1-5] | effectively shortened
26 | Cc1cncc(-n2nc(C)c(CC(=O)O)c2-c2ccccc2)c1 [Example 1-50] | effectively shortened
27 | COC(=O)Cc1c(C)nn(-c2cnccc2C)c1-c1ccc(Cl)cc1Cl [Example 2-23] | effectively shortened
28 | C#CCOC(=O)Cc1c(C)nn(-c2cccnc2)c1-c1ccncc1 [Example 3-74] | effectively shortened
29 | COC(=O)Cc1c(C=O)nn(-c2cccnc2)c1-c1ccc(Cl)cc1 [Example 2-165] | effectively shortened
30 | Cc1ccncc1-n1nc(C)c(CC(=O)O)c1-c1ccc(-c2ccccc2)cc1 [Example 1-41] | effectively shortened
31 | C=CCCOC(=O)Cc1c(C)nn(-c2cccnc2)c1-c1ccccc1 [Example 3-180] | effectively shortened
32 | COC(=O)Cc1c(C)nn(-c2cnccc2C)c1-c1ccc(Cl)c(C(F)(F)F)c1 [Example 2-48] | effectively shortened
33 | COC(=O)Cc1c(C)nn(-c2ccc(C(F)(F)F)nc2)c1-c1ccccc1 [Example 2-9] | effectively shortened
34 | Cc1nn(-c2cccnc2)c(-c2ccc(C(F)(F)F)cc2)c1CC(=O)O [Example 1-28] | effectively shortened
35 | COC(=O)Cc1c(C)nn(-c2cnccc2C)c1-c1cc(C)cc(C)c1 [Example 2-33] | effectively shortened
36 | COC(=O)Cc1c(C)nn(-c2cnccc2C)c1-c1ccc(OC)cc1 [Example 2-13] | effectively shortened
37 | Cc1ccncc1-n1nc(C)c(CC(=O)O)c1-c1ccc(F)cc1 [Example 1-37] | effectively shortened
38 | COC(=O)Cc1c(C(F)F)nn(-c2cccnc2)c1-c1ccccc1 [Example 2-79] | effectively shortened
39 | C=C(Cl)COC(=O)Cc1c(C)nn(-c2cccnc2)c1-c1ccc(Cl)s1 [Example 3-190] | effectively shortened
40 | COC(=O)Cc1c(C)nn(-c2cccnc2)c1-c1ccc(Cl)cn1 [Example 2-110] | effectively shortened
41 | CSc1ccncc1-n1nc(C)c(CC(=O)O)c1-c1ccc(Cl)cc1 [Example 1-45] | effectively shortened
42 | Cc1nn(-c2cccnc2)c(-c2cccnc2)c1CC(=O)O [Example 1-125] | effectively shortened
43 | COC(=O)Cc1c(C)nn(-c2cccnc2)c1-c1ccc(C(F)(F)F)cn1 [Example 2-144] | effectively shortened
44 | Cc1ccc(-n2nc(C)c(CC(=O)O)c2-c2ccccc2)c(C)n1 [Example 1-11] | effectively shortened

Row | Structure (SMILES) | longitudinal growth (culm length) of summer wheat
45 | Cc1nn(-c2cnccc2[S+](C)[O-])c(-c2ccc(Cl)cc2)c1CC(=O)O (centres unmarked) [Example 1-64] | effectively shortened
46 | COCCOC(=O)Cc1c(C)nn(-c2cccnc2)c1-c1ccc(Cl)cc1 [Example 3-229] | effectively shortened
47 | COC(=O)Cc1c(C)nn(-c2cnccc2[S+](C)[O-])c1-c1ccc(Cl)cc1 (centres unmarked) [Example 2-64] | effectively shortened
48 | C=C(C)COC(=O)Cc1c(C)nn(-c2cccnc2)c1-c1ccccc1 [Example 3-156] | effectively shortened
49 | Cc1ccncc1-n1nc(C)c(CC(=O)O)c1-c1ccc(C(C)(C)C)cc1 [Example 1-32] | effectively shortened
50 | COC(=O)Cc1c(C)nn(-c2ccc(OC)nc2)c1-c1ccccc1 [Example 2-5] | effectively shortened
51 | Cc1nn(-c2cccnc2)c(-c2ccccc2)c1CC(=O)OCc1ccccc1 [Example 3-50] | effectively shortened
52 | COC(=O)Cc1c(C)nn(-c2cccnc2)c1-c1ccc(Cl)c(Cl)c1 [Example 2-27] | effectively shortened
53 | Cc1ccc(-c2c(CC(=O)O)c(C)nn2-c2cnccc2C)cc1Cl [Example 1-49] | effectively shortened
54 | Cc1nn(-c2cccnc2)c(-c2ccccc2)c1CC(=O)OCC1CCCC1 [Example 3-172] | effectively shortened
55 | Cc1nn(-c2cnccc2Cl)c(-c2ccccc2)c1CC(=O)O [Example 1-30] | effectively shortened
56 | COC(=O)Cc1c(C)nn(-c2ccc(Cl)nc2Cl)c1-c1ccccc1 [Example 2-12] | effectively shortened
57 | Cc1nn(-c2cccnc2)c(-c2ccc(F)cc2)c1CC(=O)OCC1CC1 [Example 3-91] | effectively shortened
58 | Cc1cncc(-n2nc(C)c(CC(=O)O)c2-c2ccc(Cl)cc2)c1 [Example 1-51] | effectively shortened
59 | COC(=O)Cc1c(C)nn(-c2cccnc2)c1-c1ccc(C)c(Cl)c1 [Example 2-46] | effectively shortened
60 | CCc1nn(-c2cccnc2)c(-c2ccccc2)c1CC(=O)OC [Example 2-74] | effectively shortened
61 | C=C(Cl)COC(=O)Cc1c(C)nn(-c2cccnc2)c1-c1ccc(F)cc1 [Example 3-198] | effectively shortened
62 | COC(=O)Cc1c(C)nn(-c2cccnc2)c1-c1ccc(OC)cc1 [Example 2-14] | effectively shortened
63 | Cc1nn(-c2cccnc2)c(-c2ccccc2)c1CC(=O)OCC1CC1 [Example 3-77] | effectively shortened
64 | Cc1nn(-c2cccnc2)c(-c2ccc(Cl)cn2)c1CC(=O)O [Example 1-110] | effectively shortened
65 | Cc1ccnc(-c2c(CC(=O)O)c(C)nn2-c2cnccc2C)c1 [Example 1-137] | effectively shortened
